Results from patent US20250108068A1, “COMPOSITIONS AND METHODS FOR ALLEVIATING PULMONARY AILMENTS” (Color Ventures LLC, priority 2023, published 2025).

Tests used:
sheep = test: Tracheal mucus velocity (TMV) in sheep after CFTR inhibition; assay type: in vivo; conditions: nebulization, over a period of 2-3 hours
Method: Modeling mucociliary clearance. To model mucociliary clearance, sheep 40-50 kg were intubated and the velocity of mucociliary clearance in the trachea was measured by insufflation of radio-opaque Teflon discs were placed into the sheep trachea so that they become embedded in the mucus in the trachea. The movement of multiple discs over several minutes was determined using fluoroscopy and the tracheal mucus velocity (TMV) is calculated as the average that the discs travel per minute. After establishing a baseline TMV, a potent long-lasting inhibitor of CFTR (INH-172) was delivered by nebulization with TMV measurements performed every hour, and over a period of 2-3 hours the TMV declines by approximately 50% in a manner like CF where the inability to secrete Cl^− and NaHCO3 results in dehydration of the airways and slowing of mucociliary clearance.
Once the stable inhibition of TMV has been established, typically at hour 4, the test compound was delivered by nebulization and TMV measured for an additional 8 hours. Inhibitors of ENaC like amiloride (as described in Scott, David W., et al., American Journal of Respiratory and Critical Care Medicine 196.6 (2017): 734-744, incorporated herein in its entirety) and P1037/VX371 show rescue of TMV that is of limited duration with an effect that only lasts for 2-3 hours, due to systemic clearance.

[1] = system: test epithelia (MucilAir™); test: Cilia beating frequency (CBF) and % active area; assay type: cell-based, human; conditions: positive control, 100 μM in basolateral compartment for 2 hours
Method: In the studies described herein, test epithelia (MucilAir™, Epithelix) are reconstituted from cells isolated from a healthy bronchial donor. The formulation is exposed apically to mimic deposition on the nasal mucosa via inhalation. In the studies described herein, positive controls depend on experiment. For example: Isoproterenol 100 μM in culture medium; CBF activator applied in basolateral compartment ([…]) for 2 hours (CBF positive control); Isoproterenol 100 μM in culture medium (MCC positive control); […] Timeline of Epithelia Experiments. At time point 0, epithelia are treated with the test formulation or control using an apical mode of administration. Test formulations or control were exposed at a quantity of 10 μL, at the concentrations in Table 1. […] In some embodiments, CBF is analyzed with Sisson-Ammons Video Analysis (SAVA) software (Sisson et al., Journal of microscopy 211.2 (2003): 103-111) using an inverted phase contrast microscope (Zeiss®, Germany). In some embodiments, CBF is analyzed with Epithelix software (Cilia-X). […] In some embodiments, two videos are recorded per well at 120 frames per second with a total of 512 frames per video. In other embodiments, the CBF is expressed as Hz 256, wherein movies are captured at a high frequency rate of 125 frames per second. […]

Compound | Decline of TMV from baseline (sheep) | Cilia beating frequency [1]
O=C(O)c1ccc(C=C2SC(=S)N(c3cccc(C(F)(F)F)c3)C2=O)cc1 [INH-172] | approximately 50% | –
CC(C)NCC(O)c1ccc(O)c(O)c1 (centres unmarked) [positive control of cilia beating, Isoproterenol] | – | highest cilia beating frequency
